In US20260078341A1, “TREATMENT OF CANCER USING CHIMERIC ANTIGEN RECEPTOR” (Novartis AG, priority 2014, published 2026):
Like-named read-outs stand apart in the source and are kept apart here. Marks after values point to notes of the source that are not given here.

Columns and labels:
Assay type in all cases: in vivo, human
[1] = test system: A/H1N1 strain A/New Jersey/8/76; conditions: 4 weeks after seasonal influenza vaccination
[2] = test system: B/Brisbane/60/2008; test: Hemagglutination inhibition titers after influenza vaccination, B vaccine strain; conditions: for HI GMT ratio (CV %) B: GMT at week 4 post vaccination/GMT at baseline
Method: (§1) The trial was observer-blind because the placebo in the RAD001 0.5 mg daily and 20 mg weekly cohorts differed slightly from the RAD001 tablets in those cohorts. […] The treatment duration for all cohorts was 6 weeks during which time subjects underwent safety evaluations in the clinic every 2 weeks. After subjects had been dosed for 4 weeks, RAD001 steady state levels were measured pre-dose and at one hour post dose. After completing the 6 week course of study drug, subjects were given a 2 week drug free break to reverse any possible RAD001-induced immunosuppression, and then were given a 2012 seasonal influenza vaccination (Agrippal®, Novartis Vaccines and Diagnostics, Siena, Italy) containing the strains H1N1 A/California/07/2009, H3N2 A/Victoria/210/2009, B/Brisbane/60/2008. Four weeks after influenza vaccination, subjects had serum collected for influenza titer measurements. Antibody titers to the 3 influenza vaccine strains as well as to 2 heterologous strains (A/H1N1 strain A/New Jersy/8/76 and A/H3N2 strain A/Victoria/361/11) were measured by standard hemagglutination inhibition assay (Kendal, A P et al. (1982) Concepts and procedures for laboratory-based influenza surveillance. Atlanta: Centers for Disease Control and Prevention B17-B35). Levels of IgG and IgM specific for the A/H1N1/California/07/2009 were measured in serum samples taken before and 4 weeks after influenza vaccination as described previously (Spensieri, F. et al. (2013) Proc. Natl. Acad. Sci. USA 110:14330-14335). Results were expressed as fluorescence intensity.
The primary analysis of geometric mean titer ratios was done using a normal Bayesian regression model with non-informative priors. This model was fitted to each antibody titer on the log scale. The primary outcome in each model was the Day 84 measurement. The Day 63 measurement was included in the outcome vector. The model fitted using SAS 9.2 proc mixed with the prior statement. The covariance structure of the matrix was considered as unstructured (option type=UN). A flat prior was used. For the secondary analysis of seroconversion rates, logistic regression was used.
The ability of RAD001 to improve immune function in elderly volunteers was evaluated by measuring the serologic response to the 2012 seasonal influenza vaccine. The hemagglutination inhibition (HI) geometric mean titers (GMT) to each of the 3 influenza vaccine strains at baseline and 4 weeks after influenza vaccination are provided in Table 6. The primary analysis variable was the HI GMT ratio (4 weeks post vaccination/baseline). […] This endpoint was chosen because a 1.2-fold increase in the influenza GMT ratio induced by the MF-59 vaccine adjuvant was associated with a decrease in influenza illness (Iob, A et al. (2005) Epidemiol Infect 133:687-693).
Rates of seroconversion 4 weeks after influenza vaccination were also evaluated. Seroconversion was defined as the change from a negative pre-vaccination titer (i.e., HI titer <1:10) to post-vaccination HI titer ≥1:40 or at least 4-fold increase from a non-negative (>1:10) pre-vaccination HI titer.

[3] = test system: A/H3N2 strain A/Victoria/361/11; test: Seroconversion to heterologous A/H3N2 strain; conditions: for Percentage of subjects who seroconvert to heterologous strain A/H3N2 A/Victoria/361/11: 4 weeks after seasonal influenza vaccination
[4] = test system: A/H1N1/California/07/2009 influenza; test: Anti-A/H1N1/California/07/2009 influenza IgG and IgM levels in serum; conditions: baseline to 4 weeks post vaccination, vs placebo
Method: FIGS. 44A and 44B. Graphic representations of IgG and IgM levels before and after influenza vaccination. Levels of anti-A/H1N1/California/07/2009 influenza IgG and IgM were measured in serum obtained from subjects before and 4 weeks post influenza vaccination.

[5] = test system: A/H1N1/California/07/2009; test: Anti-influenza IgG and IgM levels in serum; conditions: 4 weeks after influenza vaccination
Method: as §1, with “After completing the 6 week course of study drug, subjects were given a 2 week drug free break to reverse any possible RAD001-induced immunosuppression, and then were given a 2012 seasonal influenza vaccination (Agrippal®, Novartis Vaccines and Diagnostics, Siena, Italy) containing the strains H1N1 A/California/07/2009, H3N2 A/Victoria/210/2009, B/Brisbane/60/2008. Four weeks after influenza vaccination, subjects had serum collected for influenza titer measurements.” left out

Structure (SMILES): CO[C@H]1C[C@@H]2CC[C@@H](C)[C@@](O)(O2)C(=O)C(=O)N2CCCC[C@H]2C(=O)O[C@H]([C@H](C)C[C@@H]2CC[C@@H](OCCO)[C@H](OC)C2)CC(=O)[C@H](C)/C=C(\C)[C@@H](O)[C@@H](OC)C(=O)[C@H](C)C[C@H](C)/C=C/C=C/C=C/1C [RAD001, (1R,9S,12S,15R,16E,18R,19R,21R,23S,24E,26E,28E,30S,32S,35R)-1,18-dihydroxy-12-{(1R)-2-[(1S,3R,4R)-4-(2-hydroxyethoxy)-3-methoxycyclohexyl]-1-methylethyl}-19,30-dimethoxy-15,17,21,23,29,35-hexamethyl-11,36-dioxa-4-azatricyclo[30.3.1.0^4,9]hexatriaconta-16,24,26,28-tetraene-2,3,10,14,20-pentaone]
- Percentage of subjects who seroconvert to heterologous strain A/H1N1 A/NewJersey/8/76 ([1]; RAD001 5 mg weekly): 16%
- Percentage of subjects who seroconvert to heterologous strain A/H1N1 A/NewJersey/8/76 ([1]; RAD001 20 mg weekly): 8%
- HI GMT (CV %) B ([2]; Baseline (2 weeks prior to influenza vaccination), RAD001 0.5 mg daily): 44.2 (96.6)
- HI GMT (CV %) B ([2]; Baseline (2 weeks prior to influenza vaccination), RAD001 5 mg weekly): 64.8 (87.3)
- HI GMT (CV %) B ([2]; Baseline (2 weeks prior to influenza vaccination), RAD001 20 mg weekly): 58.0 (156.0)
- HI GMT ratio (CV %) B ([2]; RAD001 0.5 mg daily): 2.5 (111.2)
- HI GMT ratio (CV %) B ([2]; RAD001 5 mg weekly): 2.2 (112.8)
- HI GMT ratio (CV %) B ([2]; RAD001 20 mg weekly): 2.1 (126.5)
- Percent of subjects with seroconversion to influenza 4 weeks after vaccination, B ([2]; Intention to Treat Population, 0.5 mg): 27%
- Percent of subjects with seroconversion to influenza 4 weeks after vaccination, B ([2]; Intention to Treat Population, 5 mg): 22%
- Percent of subjects with seroconversion to influenza 4 weeks after vaccination, B ([2]; Intention to Treat Population, 20 mg): 19%
- Percent of subjects with seroconversion to influenza 4 weeks after vaccination, B ([2]; Subjects with Baseline Titers <=40, 0.5 mg): 40* Percent
- Percent of subjects with seroconversion to influenza 4 weeks after vaccination, B ([2]; Subjects with Baseline Titers <=40, 5 mg): 33%
- Percent of subjects with seroconversion to influenza 4 weeks after vaccination, B ([2]; Subjects with Baseline Titers <=40, 20 mg): 28%
- HI GMT (CV %) B ([2]; Week 4 after influenza vaccination, RAD001 0.5 mg daily): 98.4 (94.8)
- HI GMT (CV %) B ([2]; Week 4 after influenza vaccination, RAD001 5 mg weekly): 117.3 (99.9)
- HI GMT (CV %) B ([2]; Week 4 after influenza vaccination, RAD001 20 mg weekly): 99.2 (124.1)
- Percentage of subjects who seroconvert to heterologous strain A/H3N2 A/Victoria/361/11 ([3]; RAD001 0.5 mg daily): 38%
- Percentage of subjects who seroconvert to heterologous strain A/H3N2 A/Victoria/361/11 ([3]; RAD001 5 mg weekly): 39%*
- Percentage of subjects who seroconvert to heterologous strain A/H3N2 A/Victoria/361/11 ([3]; RAD001 20 mg weekly): 40%*
- H3N2 heterologous strain seroconversion rate ([3]; pooled RAD001 cohorts, versus 20% placebo, p=0.007): 39%
- change from baseline in anti-H1N1 influenza IgG and IgM levels [4]: No significant difference
- post-vaccination anti-influenza IgM and IgG levels, RAD001 versus placebo [5]: did not differ
